“Also recorded” adds a separate entry of the source.
Columns and labels:
crossbred piglets = test: Postnatal growth experiments in newborn piglets; format: in vivo, piglet
Protocol: A study in newborn piglets was performed to identify the potential effects of 2-iminobiotin on postnatal growth. Data from 138 crossbred piglets (originating from 28 litters) were collected on a commercial, Dutch pig farm over the period from 21 Jul. 2001 to 6 May 2003.

[1] = system: newborn Dutch store piglets subjected to HI; details: for neurologic score / electrical brain activity (aEEG): 3 to 24 h post HI, versus PLAC, repeated ANOVA, all p<0.05; for piglets died post HI: ALLO n=10 (HI complications, 18 h), DFO n=10 (hypovolemic shock, 13 h), 2-IB n=7 (sepsis)
Protocol: Following anaesthesia and instrumentation 37 newborn Dutch store piglets (1–3 days old) were subjected to HI by occluding both common carotid arteries with inflatable cuffs and reducing the fraction of inspired oxygen for 60 min. MRS was performed continuously before, during and up to 3 h after start of HI and repeated at 24 h post HI. During hypoxia FiO2 was reduced>on-line=until PCr/Pi had decreased to at least 25% of baseline values. Immediately after HI the piglets received either placebo (PLAC; n=10), ALLO (20 mg/kg iv; n=10), DFO (10 mg/kg iv; n=10) or 2-IB (150 μM i.v.; n=7). Before HI and from 3 to 24 h post HI the piglets were monitored using aEEG for electrical brain activity determination. A neurologic scoring system was used ranging from 4 (normal) to 0 (flat trace). For 1H-MRS a PRESS sequence with CHESS water suppression was used to define a 1.7 ml periventricular voxel (TR 6 s, TE 144 ms, and nt=32 or 64). 31 P— MRS was done using a 4 cm-diameter surface coil for excitation and detection (TR 10 s, nt=32). Peak amplitudes of PCr, Pi, Lac and NAA were determined with time domain fitting procedures (VARPRO). Paired t-tests were used to compare measurements at 24 h versus baseline; repeated ANOVA served to monitor for trends between treatment groups.

[2] = system: brain regions at risk after HI (hippocampus, cortex, striatum and cerebellum); test: Histological analysis and nitrotyrosylation immunohistochemistry of brain at 24 h post HI; format: in vivo, piglet
neuronal NOS = details: injectable intraperitoneally; cited from earlier work
[3] = system: free radical-induced brain damage in newborns; details: pilot study in newborn babies and experimental studies; cited from earlier work
neonatal rats [4] = details: cited from earlier work
newborn piglets = details: cited from earlier work
neonatal rats [5] = details: cited from earlier work; remark: listed apart in the source
[6] = Least Square Means, total 1.1 mg/kg in 24 h after birth, n=67
[7] = during the first 10 days of life, n=67
[8] = 24 h post HI versus baseline, ALLO 20 mg/kg iv, DFO 10 mg/kg iv, 2-IB 150 μM i.v.

Question: Which results are given for `N=C1N[C@H]2[C@H](CS[C@H]2CCCCC(=O)O)N1` [2-IB, 2-iminobiotin]?
Answer: Growth at 6 weeks (crossbred piglets; [6]): 250 gram/day; Growth at 10 days (crossbred piglets; [6]): 208 gram/day; Growth at weaning (crossbred piglets; [6]): 248 gram/day; piglets died (number) (crossbred piglets; [7]): 9 piglets; piglets died (percentage of group) (crossbred piglets; [7]): 13%; Pathology and histology: adverse effects of treatment (crossbred piglets; in vivo): no adverse effects; neurologic score / electrical brain activity (aEEG) [1]: significant difference; also recorded: preserved electrical brain activity; Lac/NAA [1, 8]: identical to baseline values; also recorded: prevented increment; PCr/Pi (cerebral energy status) [1, 8]: identical to baseline values; also recorded: preserved completely; piglets died post HI [1]: 1 piglet; more effective than treatment with allopurinol and/or deferoxamine ([1]; in vivo studies involving piglets, versus allopurinol and/or deferoxamine): about 25%; more effective than placebo treatment in preventing and/or treating the effects ([1]; in vivo studies involving piglets, versus placebo): about 60%; alive cells in brain regions at risk after HI ([2]; histology): more alive cells; necrosis ([2]; histology): less necrosis; structural architecture ([2]; histology): better preserved structural architecture; nitrotyrosylation staining in the affected areas ([2]; immunohistochemistry): no staining; also recorded: less nitrotyrosylation staining

Question: With `O=[N+]([O-])c1cccc2cn[nH]c12` [7-nitroindazole] as the molecule, how does the apoptosis (neuronal NOS) read?
Answer: The apoptosis was “effective in reducing apoptosis”.

Question: What about the levels of citrulline (neuronal NOS) of the same molecule?
Answer: The levels of citrulline was “reducing the levels of citrulline”.

Question: What does the source list for `Oc1ncnc2[nH]ncc12` [ALLO, allopurinol, reference compound]?
Answer: neurologic score / electrical brain activity (aEEG) [1]: significant difference; PCr/Pi (cerebral energy status) [1, 8]: prevented partly; piglets died post HI [1]: 1 piglet; free radical-induced brain damage in newborns [3]: reduce free radical-induced brain damage in newborns to some extend

Question: For `CC(=O)N(O)CCCCCNC(=O)CCC(=O)N(O)CCCCCNC(=O)CCC(=O)N(O)CCCCCN` [DFO, deferoxamine, reference compound], which “piglets died post HI” value [1] is on record?
Answer: The value was 1 piglet.

Question: With `COC(=O)[C@@H](N)CCCNC(=N)N[N+](=O)[O-]` [L-NAME, L-nitro-arginine methyl ester] as the molecule, how does the neuroprotection (neonatal rats [4]) read?
Answer: The neuroprotection was “neuroprotective”.

Question: With `N=C(NCCC[C@H](N)C(=O)O)N[N+](=O)[O-]` [NNLA, N^G-nitro-L-arginine] as the molecule, how does the “cerebral energy status during and after hypoxia-ischemia” value (newborn piglets) read?
Answer: The value was “compromised”.

Question: With `N=C(N)NN` [aminoguanidine] as the molecule, how does the infarct volumes (neonatal rats [5]) read?
Answer: The infarct volumes was “reduced infarct volumes”.
